This is an account of results in ChEMBL document CHEMBL6153089, “Design, Synthesis, and Biological Evaluation of Thieno[3,2-d]pyrimidine Derivatives as the First Bifunctional PI3Kδ Isoform Selective/Bromodomain and Extra-Terminal Inhibitors” (J Med Chem, 2025).

Calls of active or inactive are those of the source. No cut-off for these calls is given here.

For orientation: inhibition means the percentage by which the read-out fell short of the control. By AUC(0-t) is commonly meant the area under the concentration-time curve up to a stated or last time point. Read a high AUC(0-t) as high exposure.

The target of series [1] is PI3-kinase p110-alpha/p85-alpha (Homo sapiens) (UniProt P27986+P42336). Nature of the series: Inhibition of human p110alpha/p85alpha at 1 uM relative to control. Type of series: protein-complex assay.
Series [2] relates to SU-DHL-6. Nature of the series: Antitumor activity against human SU-DHL-6 cells xenografted in female BALB/c mouse model assessed as reduction in c-Myc level in tumor at 20 mg/kg, po administered once daily via gavage for 15 days by Western blot analysis. Type of series: functional, organism-based. The conditions noted are these: time 15.0 day.
Series [3] addresses Glycogen synthase kinase-3 beta (Homo sapiens) (UniProt P49841). Nature of the series: Inhibition of GSK-3beta phosphorylation in human SU-DHL-4 cells at 0.25 to 1 uM incubated for 12 hrs by Western blot analysis. Type of series: cell-based. The conditions noted are these: dose 0.25-1 µM. (Immunoblotting shows a protein as a band on a membrane.)
The species entered for series [4] is Homo sapiens. Nature of the series: Inhibition of human p110alpha-H1047R mutant/p85alpha at 1 uM relative to control.
A short description of series [5]: AUC (0 to t) in female BALB/c mouse at 1 mg/kg, iv measured after 12 hrs by LC-MS/MS analysis. Type of series: ADME, organism-based. The conditions noted are these: in vivo.
Series [6] relates to SU-DHL-6. Nature of the series: Induction of apoptosis in human SU-DHL-6 cells assessed as early apoptotic cells at 1 uM incubated for 24 hrs by Annexin V-FITC/PI staining based flow cytometric analysis (reference value: 32.1 %). Type of series: functional. (A flow cytometer gives signals particle by particle.)
Series [7] in a line: Toxicity in female BALB/c mouse model xenografted with human SU-DHL-6 cells assessed as effect on heart histopathology at 20 mg/kg, po administered once daily via gavage for 15 days by H and E staining based analysis. Type of series: organism-based. Particulars: in vivo, 360 h, time 15 day.
For series [8], the system named is SU-DHL-6. Nature of the series: Induction of apoptosis in human SU-DHL-6 cells assessed as necrotic cells at 0.5 uM incubated for 24 hrs by Annexin V-FITC/PI staining based flow cytometric analysis (reference value: 0.246 %). Type of series: functional.
For series [9], the system named is SU-DHL-6. Nature of the series: Induction of apoptosis in human SU-DHL-6 cells assessed as late apoptotic cells at 0.5 uM incubated for 24 hrs by Annexin V-FITC/PI staining based flow cytometric analysis (reference value: 6.43 %). Type of series: functional.
Series [10] relates to SUD4. Nature of the series: Induction of apoptosis in human SU-DHL-4 cells assessed as viable cells at 0.5 uM incubated for 24 hrs by Annexin V-FITC/PI staining based flow cytometric analysis (reference value: 65.2 %). Type of series: functional. The conditions noted are these: read-out: Activity.
The nature of series [11]: Toxicity in female BALB/c mouse model xenografted with human SU-DHL-6 cells assessed as effect on spleen histopathology at 20 mg/kg, po administered once daily via gavage for 15 days by H and E staining based analysis. The conditions noted are these: in vivo, 360 h, time 15 day. Type of series: organism-based. For orientation: In xenograft studies the graft and the host belong to different species.

A short description of series [12]: Toxicity in female BALB/c mouse model xenografted with human SU-DHL-6 cells assessed as effect on kidney histopathology at 20 mg/kg, po administered once daily via gavage for 15 days by H and E staining based analysis. Type of series: organism-based. Particulars: in vivo, 360 h, time 15 day.
Series [13] concerns the target Bromodomain-containing protein 4 (Homo sapiens, UniProt O60885). Description: Inhibition of His-tagged BRD4-BD1 (unknown origin) at 10 nM incubated for 30 mins by Alphascreen assay relative to control.
Series [14] relates to SU-DHL-6. Nature of the series: Cell cycle arrest in human SU-DHL-6 cells assessed as accumulation of cells at S phase incubated for 12 hrs by PI staining based flow cytometric analysis. Type of series: functional. The conditions noted are these: dose 0.25-1 µM.
Series [15] addresses Glycogen synthase kinase-3 beta (Homo sapiens) (UniProt P49841). Description: Inhibition of GSK-3beta phosphorylation in human SU-DHL-6 cells incubated for 12 hrs by Western blot analysis. Type of series: cell-based. Particulars: dose 0.25-1 µM.

Glycogen synthase kinase-3 beta (Homo sapiens), sequence (P49841 whole entry, looked up): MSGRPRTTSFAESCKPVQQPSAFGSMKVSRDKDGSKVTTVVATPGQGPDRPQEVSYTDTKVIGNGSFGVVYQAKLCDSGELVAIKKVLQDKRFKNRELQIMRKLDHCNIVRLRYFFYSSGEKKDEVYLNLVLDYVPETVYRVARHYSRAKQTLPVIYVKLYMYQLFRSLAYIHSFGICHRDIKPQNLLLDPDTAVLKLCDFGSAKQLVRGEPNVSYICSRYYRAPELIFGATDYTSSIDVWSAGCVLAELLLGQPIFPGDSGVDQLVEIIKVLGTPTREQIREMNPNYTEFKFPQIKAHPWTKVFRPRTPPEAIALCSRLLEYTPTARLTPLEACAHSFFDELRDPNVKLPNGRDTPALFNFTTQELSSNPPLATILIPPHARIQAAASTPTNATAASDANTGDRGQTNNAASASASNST

Take `Cn1cc(-c2nc(N3CCOCC3)c3sc(CN4CCC(C(C)(C)O)CC4)cc3n2)c2cc[nH]c2c1=O`: the inhibition in [1] is 41%; in series [4] it was 33.7%; in series [13] it was 33.7%; in [15] it was “Dose-dependent-effect”. Besides, the outcome in series [2] was Active. In addition, the inhibition entry in series [3] was “Active”. Further, the AUC(0-t) at 12 h in series [5] turned out to be 145 ng·h/mL. The Activity was 48.9% in series [6]; “Non-toxic” in [7]; 0.67% in series [8]; 7.86% in series [9]; “Non-toxic” in series [11]; “Non-toxic” in [12]. In series [14], the Activity result was “Dose-dependent-effect”. Moreover, the viability at 0.5 µM in series [10] came out at 49.1%.
